Among the data in patent publication US20260125359A1, “HETEROARYL COMPOUNDS AS MULTI-TARGET PROTEIN KINASE INHIBITORS” (FUJIAN HAIXI PHARMACEUTICALS CO., LTD., priority 2023, published 2026) are IC50 values, retold here.

For orientation: IC50 means the point on the concentration scale where inhibition reaches its midpoint.

In the first assay the test system is M-NFS-60 cells. The assay can be described thus: M-NFS-60 cell in vitro assay (CCK, 48 h, M-CSF factor medium). The class given is cell-based. As to conditions: M-NFS-60 cells; read-out: M-NFS-60cellassay IC50. As for the experimental part: To determine the inhibitory activity of compounds on M-NFS-60 cells.
• M-NFS-60 cell line (ATCC, Cat. No.: CRL-1838) • RPMI-1640 medium (Gibco, domestic subpackage, Cat. No.: C11875500BT) • Recombinant Mouse CSF1/M-CSF (Sino Biological Inc., Cat. No.: 51112-MNAH) • PAN/Serum (BioTECH, Cat. No.: P30-2602) • Trypsin/0.05% Trypsin-EDTA (Gibco, Cat. No.: 25300-062) • 0.4% Trypan Blue (Sigma, Cat. No.: T8154-20 ml) • Penicillin-Streptomycin (Hyclone, Cat. No.: SV30010) • DMSO (Solarbio, Cat. No.: D8371) • PBS (Solarbio, Cat. No.: P1020) • CCK (AbMole BioScience, Cat. No.: M4839-500Tests)
• 1) M-CSF factor stock solution: take 10 μg of powdered m-CSF factor, add 0.4 ml of saline, formulate 25 ug/ml and store at −80° C. • 2) M-CSF factor (25 ng/ml) medium: • 1640 (Gibco)+10% PAN+100×Penicillin-Streptomycin+100×M-CSF stock solution • 3) Complete medium: • 1640 (Gibco)+10% PAN+100×Penicillin-Streptomycin • 4) Compound preparation: 2-3 mg of the compound was added to DMSO to formulate a 30 mM stock solution, −80° C. refrigerator storage
• 1) Cell resuscitation: the frozen cells in the cryovial were thawed rapidly by shaking in a 37° C. water bath, then 4 mL of medium was added. After mixing evenly, they were centrifuged at 125×g for 5 min, and the supernatant was discarded. The cells were resuspended and transferred to the culture flasks, and were cultured in a 5% CO2 fully saturated humidity incubator. • 2) Cell passaging: M-NFS-60 cells are semi-suspension cells, which were collected directly in a 15 mL centrifuge tube, centrifuged at 125×g for 5 min. and the supernatant was discarded. The cells were resuspended and passaged into new culture flasks at a ratio of 1:5 to 1:10. • 3) After the newly resuscitated cells were passaged 1-2 times for cell stabilization, compound inhibition assays were started when the cells were in the logarithmic growth phase. • (a) Cell collection and counting: the same as the cell passaging step, centrifuge in two tubes, one tube with M-CSF factor medium to resuspend the cells, the other tube with complete medium to resuspend the cells. Take 10 μL of cell suspension in each tube, and count the cells by Tepan blue staining. • (b) Dilute the cell solution according to the concentration of inoculated cells respectively, the concentration of M-NFS-60 cells inoculated with factor was 5.56×10^4 cells/mL, and the concentration of inoculated without factor was 5×10^4 cells/mL. • (c) Seed plate: 384 well plate inoculated with M-NFS-60 cells, 36 uL/well, triplicate wells, the number of inoculated cells was equivalent to 2000 cells/well, set with blank control, factor free negative control, normal control, DMSO control and experimental wells. The cells were placed in a 5% CO2 fully saturated humidity incubator for 4 h. • (d) Sampling compounds: 96 well plates were used for compound preparation. The compound solution prepared in advance was diluted to corresponding gradient concentration with DMSO. An appropriate amount of the diluted solution in the previous step was added to an equal volume of factor containing medium. The 96 well plates were centrifuged at 1000 rpm for 5 min, which played the role of defoaming and spinning down droplets and condensation. Remove the 384 well plate from the incubator, add the diluted compound solution into each well sequentially, 4 μL/well; DMSO wells and normal wells were added with corresponding factor containing medium, 4 μL/well. Then it was put into CO2 incubator for 48 h. • (e) After incubation for 48 h, CCK was added to each well, 4 uL, and the plates were placed in the incubator for another 2 h, and then the OD (optical density) value at 450 nm was measured by microplate reader.
The IC50 values for each test compound were fitted using professional graphing and analysis software.
As for `Cn1cc(-c2cncc(N[C@H]3CCc4c(NC(=O)c5cccc(C(F)(F)F)c5F)cccc43)n2)cn1` [Compound 25c], the half-maximal inhibitory concentration (IC50) was less than 50 nM.
On the same count and under the same terms, the same measure for `Cn1cc(-c2cncc(N[C@@H]3CCc4c(NC(=O)c5cccc(C(F)(F)F)c5F)cccc43)n2)cn1` [Compound 25d]: more than 500 nM; for `CN1CCN(c2cccc(C(=O)Nc3cccc4c3CC[C@@H]4Nc3cncc(-c4cnn(C)c4)n3)c2)CC1` [Compound 25e]: 50 to 200 nM; for `CN1CCN(Cc2ccc(C(=O)Nc3cccc4c3CC[C@@H]4Nc3cncc(-c4cnn(C)c4)n3)cc2)CC1` [Compound 25f]: 50 to 200 nM.
Take `Cc1cccc(NC(=O)c2cccc3c2CC[C@@H]3Nc2cncc(-c3cnn(C)c3)n2)c1` [Compound 26, (S)-1-((6-(1-methyl-1H-pyrazol-4-yl)pyrazin-2-yl)amino)-N-(m-tolyl)-2,3-dihydro-1H-indene-4-carboxamide]: the concentration for half-maximal inhibition (IC50) was less than 50 nM.
Still for that read-out and setting: the same measure for `Cn1cc(-c2cncc(N[C@H]3CCc4c(C(=O)Nc5cccc(C6CC6)c5)cccc43)n2)cn1` [Compound 27a]: less than 50 nM.
The same measure, in the same setting: with `Cn1cc(-c2cncc(N[C@H]3CCc4c(C(=O)N5CCCCC5)cccc43)n2)cn1` [Compound 27b] the figure was more than 500 nM; with `Cn1cc(-c2cncc(N[C@H]3CCc4c(C(=O)NC5CCCCC5)cccc43)n2)cn1` [Compound 27c], less than 50 nM; with `CN(C)C(=O)c1cccc2c1CC[C@@H]2Nc1cncc(-c2cnn(C)c2)n1` [Compound 27d], more than 500 nM.
The same measure, in the same setting: with `CC(C)NC(=O)c1cccc2c1CC[C@@H]2Nc1cncc(-c2cnn(C)c2)n1` [Compound 27e] the figure was 50 to 200 nM; with `Cn1cc(-c2cncc(N[C@H]3CCc4c(C(=O)NC5CCC(F)(F)CC5)cccc43)n2)cn1` [Compound 27f], less than 50 nM.
Take `CN1CCC(NC(=O)c2cccc3c2CC[C@@H]3Nc2cncc(-c3cnn(C)c3)n2)CC1` [Compound 27h]: the half-maximal inhibitory concentration (IC50) was more than 500 nM.
The same measure, in the same setting: the same measure for `Cn1cc(-c2cncc(N[C@H]3CCc4c(C(=O)NN5CC6CCCC6C5)cccc43)n2)cn1` (stereo partly shown) [Compound 27i]: less than 50 nM; for `Cn1cc(-c2cncc(N[C@H]3CCc4c(C(=O)NN5CCCCC5)cccc43)n2)cn1` [Compound 27j]: more than 500 nM.
On the same count and under the same terms, the same measure for `Cn1cc(-c2cncc(N[C@H]3CCc4c(C(=O)Nc5cncc(Cl)c5)cccc43)n2)cn1` [Compound 27k]: less than 50 nM.
Still for that read-out and setting: with `Cn1cc(-c2cncc(N[C@H]3CCc4c(C(=O)NC5CCOCC5)cccc43)n2)cn1` [Compound 27l] the figure was more than 500 nM; with `Cn1cc(-c2cncc(N[C@H]3CCc4c(C(=O)NC(C)(C)C(F)(F)F)cccc43)n2)cn1` [Compound 27m], more than 500 nM; with `Cn1cc(-c2cncc(N[C@H]3CCc4c(C(=O)Nc5ccccc5F)cccc43)n2)cn1` [Compound 27n], less than 50 nM.
With `COc1cc(NC(=O)c2cccc3c2CC[C@@H]3Nc2cncc(-c3cnn(C)c3)n2)ccc1F` [Compound 27o], the IC50 is less than 50 nM.
On the same count and under the same terms, with `Cn1cc(-c2cncc(N[C@H]3CCc4c(NC(=O)c5cccc(CN6CCCCC6)c5)cccc43)c2)cn1` [Compound 28a] the figure was more than 500 nM; with `Cn1cc(-c2cncc(N[C@H]3CCc4c(NC(=O)c5cccc(CN6CCCC6)c5)cccc43)c2)cn1` [Compound 28b], more than 500 nM; with `COC(=O)Nc1cccc2c1CC[C@@H]2Nc1cncc(-c2cnn(C)c2)n1` [Compound 29, methyl(S)-(1-((6-(1-methyl-1H-pyrazol-4-yl)pyrazin-2-yl)amino)-2,3-dihydro-1H-inden-4-yl) carbamate], more than 500 nM.
Same read-out and setting: the same measure for `Cc1cccc(C(=O)Nc2cccc3c2CC[C@@H]3Nc2cncc(Cl)n2)c1` [Compound 30, (S)—N-(1-((6-chloropyrazin-2-yl)amino)-2,3-dihydro-1H-inden-4-yl)-3-methylbenzamide]: less than 50 nM; for `Cc1cccc(C(=O)Nc2cccc3c2CC[C@@H]3Nc2cncc(N3CCN(C)CC3)n2)c1` [Compound 31, (S)-3-methyl-N-(1-((6-(4-methylpiperazin-1-yl)pyrazin-2-yl)amino)-2,3-dihydro-1H-inden-4-yl)benzamide]: 200 to 500 nM; for `Cc1cccc(C(=O)Nc2cccc3c2CC[C@@H]3Nc2cncc(N(C)CCN(C)C)n2)c1` [Compound 32, (S)—N-(1-((6-((2-(dimethylamino)ethyl)(methyl)amino)pyrazin-2-yl)amino)-2,3-dihydro-1H-inden-4-yl)-3-methylbenzamide]: more than 500 nM.
Still for that read-out and setting: the same measure for `Cc1cccc(NC(=O)c2cccc3c2CC[C@@H]3Nc2cncc(Cl)n2)c1` [Compound 33c, (S)-1-((6-chloropyrazin-2-yl)amino)-N-(m-tolyl)-2,3-dihydro-1H-indene-4-carboxamide]: less than 50 nM; for `Cc1cccc(NC(=O)c2cccc3c2CC[C@@H]3Nc2cncc(N3CCN(C)CC3)n2)c1` [Compound 34, (S)-1-((6-(4-methylpiperazin-1-yl)pyrazin-2-yl)amino)-N-(m-tolyl)-2,3-dihydro-1H-indene-4-carboxamide]: 50 to 200 nM; for `CC(C)c1csc(Nc2cccc3c2CC[C@@H]3Nc2cncc(-c3cnn(C)c3)n2)n1` [Compound 35, (S)—N^4-(4-isopropylthiazol-2-yl)-N^1-(6-(1-methyl-1H-pyrazol-4-yl)pyrazin-2-yl)-2,3-dihydro-1H-indene-1,4-diamine]: 50 to 200 nM.
In the case of `Cc1csc(Nc2cccc3c2CC[C@@H]3Nc2cncc(-c3cnn(C)c3)n2)n1` [Compound 36a], the IC50 is more than 500 nM.
The same measure, in the same setting: with `Cn1cc(-c2cncc(N[C@H]3CCc4c(Nc5nc(C6CC6)cs5)cccc43)n2)cn1` [Compound 36b] the figure was 50 to 200 nM; with `Cn1cc(-c2cncc(N[C@H]3CCc4c(Nc5nc(C(C)(C)C)cs5)cccc43)n2)cn1` [Compound 36c], less than 50 nM; with `CC(C)c1cnc(Nc2cccc3c2CC[C@@H]3Nc2cncc(-c3cnn(C)c3)n2)s1` [Compound 37, (S)—N^4-(5-isopropylthiazol-2-yl)-N^1-(6-(1-methyl-1H-pyrazol-4-yl)pyrazin-2-yl)-2,3-dihydro-1H-indene-1,4-diamine], 50 to 200 nM.
On the same count and under the same terms, the same measure for `Cn1cc(-c2cncc(N[C@H]3CCc4c(Nc5ccn(C(C)(C)C)n5)cccc43)n2)cn1` [Compound 38, (S)—N^4-(1-(tert-butyl)-1H-pyrazol-3-yl)-N^1-(6-(1-methyl-1H-pyrazol-4-yl)pyrazin-2-yl)-2,3-dihydro-1H-indene-1,4-diamine]: 50 to 200 nM; for `Cn1cc(-c2cncc(N[C@H]3CCc4c(Nc5cnn(C(C)(C)C)c5)cccc43)n2)cn1` [Compound 39a]: more than 500 nM; for `Cc1cncc(Nc2cccc3c2CC[C@@H]3Nc2cncc(-c3cnn(C)c3)n2)c1` [Compound 39b]: more than 500 nM.
The same measure, in the same setting: the same measure for `Cc1c(Nc2cccc3c2CC[C@@H]3Nc2cncc(-c3cnn(C)c3)c2)noc1C(C)(C)C` [Compound 40, (S)—N^4-(5-(tert-butyl)-4-methylisoxazol-3-yl)-N^1-(5-(1-methyl-1H-pyrazol-4-yl)pyridin-3-yl)-2,3-dihydro-18-indene-1,4-diamine]: less than 50 nM.

Still in this assay, the particulars now being: read-out: M-NFS-60cellassay IC50(nM).
Regarding `Cc1cccc(NC(=O)c2cccc3c2CC[C@@H]3Nc2cncc(C3=CCN(C)CC3)n2)c1` [Compound 33, (S)-1-((6-(1-methyl-1,2,3,6-tetrahydropyridin-4-yl)pyrazin-2-yl)amino)-N-(m-tolyl)-2,3-dihydro-1H-indene-4-carboxamide], the half-inhibitory concentration (IC50) lay within 50 to 200 nM.
